According to patent US20260232767A1, “INTERLEUKIN-23 RECEPTOR ANTAGONIST PEPTIDES FOR USE IN THE TREATMENT OF PSORIASIS” (Janssen Pharmaceutica NV, priority 2023, published 2026):

Test system: subjects with moderate-to-severe plaque psoriasis
Assay: IGA score, Example 1
Format: in vivo, human
Procedure: The Investigator's Global Assessment (IGA) documents the investigator's assessment of the participant's psoriasis at a given time point. Overall lesions are graded for induration, erythema, and scaling. The participant's psoriasis is assessed as cleared (0), minimal (1), mild (2), moderate (3), or severe (4).
This was a randomized, double-blind, placebo-controlled, dose-ranging, parallel group, multicenter, interventional study in subjects with moderate-to-severe plaque psoriasis. A target of 240 subjects were enrolled in this study with 40 subjects planned per intervention group.
Clinician-reported outcomes including Psoriasis Area and Severity Index (PASI), Body Surface Area (BSA), Investigator's Global Assessment (IGA), Nail Psoriasis Area and Severity Index (NAPSI), Fingernail Physician's Global Assessment (f-PGA), Static Physician's Global Assessment of Genitalia (s-PGA-G), Physician's Global Assessment of Hands and/or Feet (hf-PGA), and Scalp Specific Investigator Global Assessment (ss-IGA) were obtained at Week 0, 8, and 16. PASI and IGA were also obtained at Weeks 1, 2, 4, and 12, and at Week 20, four weeks after the administration of the tablets has stopped.

[1] = 100 mg BID, Week 16, trough plasma conc Q2 to <Q3
[2] = 100 mg BID, Week 16, trough plasma conc ≥Q3
[3] = 100 mg QD, Week 16, peak plasma conc. <Q1, N=2
[4] = 100 mg QD, Week 16, peak plasma conc. Q1 to <Q2, N=2
[5] = 100 mg QD, Week 16, peak plasma conc. Q2 to <Q3, N=2
[6] = 100 mg QD, Week 16, peak plasma conc. ≥Q3, N=2
[7] = 100 mg QD, Week 16, trough plasma conc <Q1
[8] = 100 mg QD, Week 16, trough plasma conc Q1 to <Q2
[9] = 100 mg QD, Week 16, trough plasma conc Q2 to <Q3
[10] = 100 mg QD, Week 16, trough plasma conc ≥Q3
[11] = Combined doses, Week 16, peak plasma conc. <Q1, N=10
[12] = Combined doses, Week 16, peak plasma conc. Q1 to <Q2, N=11
[13] = Combined doses, Week 16, peak plasma conc. Q2 to <Q3, N=10
[14] = Combined doses, Week 16, peak plasma conc. ≥Q3, N=11
[15] = Combined doses, Week 16, trough plasma conc <Q1
[16] = Combined doses, Week 16, trough plasma conc Q1 to <Q2
[17] = Combined doses, Week 16, trough plasma conc Q2 to <Q3
[18] = Combined doses, Week 16, trough plasma conc ≥Q3
[19] = Week 16, 25 mg BID, intermediate plasma concentration quartile <Q1, N=1
[20] = Week 16, 25 mg BID, intermediate plasma concentration quartile Q1 to <Q2, N=1
[21] = Week 16, 25 mg BID, intermediate plasma concentration quartile Q2 to <Q3, N=1
[22] = Week 16, 25 mg BID, intermediate plasma concentration quartile ≥Q3, N=1
[23] = Week 16, 25 mg QD, intermediate plasma concentration quartile Q1 to <Q2, N=1
[24] = Week 16, 25 mg QD, intermediate plasma concentration quartile Q2 to <Q3, N=1
[25] = Week 16, 25 mg QD, intermediate plasma concentration quartile ≥Q3, N=1
[26] = Week 16, 50 mg QD, intermediate plasma concentration quartile <Q1, N=1
[27] = Week 16, 50 mg QD, intermediate plasma concentration quartile Q1 to <Q2, N=1
[28] = Week 16, 50 mg QD, intermediate plasma concentration quartile Q2 to <Q3, N=1
[29] = Week 16, 50 mg QD, intermediate plasma concentration quartile ≥Q3, N=2
[30] = Week 16, 100 mg BID, intermediate plasma concentration quartile <Q1, N=1
[31] = Week 16, 100 mg BID, intermediate plasma concentration quartile Q1 to <Q2, N=1
[32] = Week 16, 100 mg BID, intermediate plasma concentration quartile Q2 to <Q3, N=1
[33] = Week 16, 100 mg BID, intermediate plasma concentration quartile ≥Q3, N=2
[34] = Week 16, 100 mg QD, intermediate plasma concentration quartile <Q1, N=1
[35] = Week 16, 100 mg QD, intermediate plasma concentration quartile Q1 to <Q2, N=1
[36] = Week 16, 100 mg QD, intermediate plasma concentration quartile Q2 to <Q3, N=1
[37] = Week 16, 100 mg QD, intermediate plasma concentration quartile ≥Q3, N=1
[38] = Week 16, Combined regimens, intermediate plasma concentration quartile <Q1, N=5
[39] = Week 16, Combined regimens, intermediate plasma concentration quartile Q1 to <Q2, N=5
[40] = Week 16, Combined regimens, intermediate plasma concentration quartile Q2 to <Q3, N=5
[41] = Week 16, Combined regimens, intermediate plasma concentration quartile ≥Q3, N=6

## CC(=O)NCCCC[C@@H]1NC(=O)[C@H](Cc2c[nH]c3c(C)cccc23)NC(=O)[C@H]([C@@H](C)O)NC(=O)[C@H](CC(N)=O)NC(=O)[C@@H](NC(C)=O)C(C)(C)SSC(C)(C)[C@@H](C(=O)N[C@@H](Cc2ccc(OCCN)cc2)C(=O)N[C@@H](Cc2ccc3ccccc3c2)C(=O)NC2(C(=O)N[C@@H](CCC(=O)O)C(=O)N[C@@H](CC(N)=O)C(=O)N[C@@H](Cc3cccnc3)C(=O)N(C)CC(N)=O)CCOCC2)NC1=O [IL-23 receptor antagonist peptide, Ac-[Pen]*-N-T-[W(7-Me)]-[Lys(Ac)]-[Pen]*-Phe[4-(2-aminoethoxy)]-[2-Nal]-[THP]-E-N-[3-Pal]-Sarc-NH2 (*[Pen]-[Pen]* formdisulfidebond)]
100 mg BID, Week 16, trough plasma conc Q1 to <Q2
  IGA Score = 0 or 1, subjects: 4 (80.0%)
[1]
  IGA Score = 0, subjects: 2 (40.0%)
  IGA Score = 0 or 1, subjects: 3 (60.0%)
[2]
  IGA Score = 0, subjects: 3 (60.0%)
  IGA Score = 0 or 1, subjects: 4 (80.0%)
100 mg QD, Week 16
  IGA 0 or 1 treatment difference vs placebo: 51.2% (34.0%,
  IGA 0 treatment difference vs placebo: 27.9% (14.6%,
  Subjects achieving IGA Score = 0: 12 (27.9%)
  Subjects achieving IGA Score = 0 or 1: 27 (62.8%)
100 mg QD, Week 16, N=43
  IGA score 0, %: 27.9%
  IGA score 0/1, %: 62.8%
[3]
  IGA Score = 0, % subjects: (50.0%)
  IGA Score = 0, n subjects: 1
  IGA Score = 0 or 1, % subjects: (50.0%)
  IGA Score = 0 or 1, n subjects: 1
[4]
  IGA Score = 0, % subjects: (50.0%)
  IGA Score = 0, n subjects: 1
  IGA Score = 0 or 1, % subjects: (100.0%)
  IGA Score = 0 or 1, n subjects: 2
[5]
  IGA Score = 0, % subjects: (50.0%)
  IGA Score = 0, n subjects: 1
  IGA Score = 0 or 1, % subjects: (50.0%)
  IGA Score = 0 or 1, n subjects: 1
[6]
  IGA Score = 0, n subjects: 0
  IGA Score = 0 or 1, % subjects: (50.0%)
  IGA Score = 0 or 1, n subjects: 1
[7]
  IGA Score = 0, subjects: 3 (60.0%)
  IGA Score = 0 or 1, subjects: 3 (60.0%)
[8]
  IGA Score = 0, subjects: 0
  IGA Score = 0 or 1, subjects: 3 (60.0%)
[9]
  IGA Score = 0, subjects: 1 (20.0%)
  IGA Score = 0 or 1, subjects: 3 (60.0%)
[10]
  IGA Score = 0, subjects: 1 (20.0%)
  IGA Score = 0 or 1, subjects: 3 (60.0%)
[11]
  IGA Score = 0, % subjects: (10.0%)
  IGA Score = 0, n subjects: 1
  IGA Score = 0 or 1, % subjects: (30.0%)
  IGA Score = 0 or 1, n subjects: 3
[12]
  IGA Score = 0, % subjects: (36.4%)
  IGA Score = 0, n subjects: 4
  IGA Score = 0 or 1, % subjects: (72.7%)
  IGA Score = 0 or 1, n subjects: 8
[13]
  IGA Score = 0, % subjects: (30.0%)
  IGA Score = 0, n subjects: 3
  IGA Score = 0 or 1, % subjects: (80.0%)
  IGA Score = 0 or 1, n subjects: 8
[14]
  IGA Score = 0, % subjects: (45.5%)
  IGA Score = 0, n subjects: 5
  IGA Score = 0 or 1, % subjects: (63.6%)
  IGA Score = 0 or 1, n subjects: 7
[15]
  IGA Score = 0, subjects: 10 (38.5%)
  IGA Score = 0 or 1, subjects: 14 (53.8%)
[16]
  IGA Score = 0, subjects: 5 (19.2%)
  IGA Score = 0 or 1, subjects: 12 (46.2%)
[17]
  IGA Score = 0, subjects: 5 (19.2%)
  IGA Score = 0 or 1, subjects: 15 (57.7%)
[18]
  IGA Score = 0, subjects: 10 (37.0%)
  IGA Score = 0 or 1, subjects: 21 (77.8%)
[19]
  IGA Score = 0, subjects n (%): 0
  IGA Score = 0 or 1, subjects n (%): 0
[20]
  IGA Score = 0, subjects n (%): 0
  IGA Score = 0 or 1, subjects n (%): 1 (100.0%)
[21]
  IGA Score = 0, subjects n (%): 0
  IGA Score = 0 or 1, subjects n (%): 0
[22]
  IGA Score = 0, subjects n (%): 0
  IGA Score = 0 or 1, subjects n (%): 1 (100.0%)
[23]
  IGA Score = 0, subjects n (%): 0
  IGA Score = 0 or 1, subjects n (%): 0
[24]
  IGA Score = 0, subjects n (%): 1 (100.0%)
  IGA Score = 0 or 1, subjects n (%): 1 (100.0%)
[25]
  IGA Score = 0, subjects n (%): 0
  IGA Score = 0 or 1, subjects n (%): 0
[26]
  IGA Score = 0, subjects n (%): 0
  IGA Score = 0 or 1, subjects n (%): 0
[27]
  IGA Score = 0, subjects n (%): 1 (100.0%)
  IGA Score = 0 or 1, subjects n (%): 1 (100.0%)
[28]
  IGA Score = 0, subjects n (%): 1 (100.0%)
  IGA Score = 0 or 1, subjects n (%): 1 (100.0%)
[29]
  IGA Score = 0, subjects n (%): 0
  IGA Score = 0 or 1, subjects n (%): 1 (50.0%)
[30]
  IGA Score = 0, subjects n (%): 1 (100.0%)
  IGA Score = 0 or 1, subjects n (%): 1 (100.0%)
[31]
  IGA Score = 0, subjects n (%): 1 (100.0%)
  IGA Score = 0 or 1, subjects n (%): 1 (100.0%)
[32]
  IGA Score = 0, subjects n (%): 0
  IGA Score = 0 or 1, subjects n (%): 0
[33]
  IGA Score = 0, subjects n (%): 2 (100.0%)
  IGA Score = 0 or 1, subjects n (%): 2 (100.0%)
[34]
  IGA Score = 0, subjects n (%): 1 (100.0%)
  IGA Score = 0 or 1, subjects n (%): 1 (100.0%)
[35]
  IGA Score = 0, subjects n (%): 1 (100.0%)
  IGA Score = 0 or 1, subjects n (%): 1 (100.0%)
[36]
  IGA Score = 0, subjects n (%): 0
  IGA Score = 0 or 1, subjects n (%): 1 (100.0%)
[37]
  IGA Score = 0, subjects n (%): 0
  IGA Score = 0 or 1, subjects n (%): 1 (100.0%)
[38]
  IGA Score = 0, subjects n (%): 3 (60.0%)
  IGA Score = 0 or 1, subjects n (%): 3 (60.0%)
[39]
  IGA Score = 0, subjects n (%): 2 (40.0%)
  IGA Score = 0 or 1, subjects n (%): 3 (60.0%)
[40]
  IGA Score = 0, subjects n (%): 1 (20.0%)
  IGA Score = 0 or 1, subjects n (%): 3 (60.0%)
[41]
  IGA Score = 0, subjects n (%): 3 (50.0%)
  IGA Score = 0 or 1, subjects n (%): 5 (83.3%)
